Data taken from article PMC7531004, “Discovery of gramicidin A analogues with altered activities by multidimensional screening of a one-bead-one-compound library” (Nature Communications, 2020).
Where a SMILES comes first, the peptide text is derived from it. [ ]: non-standard residue; d: D form. The star is where a group is joined. NHCH2CH2OH = OCCN*; For = O=C*

Assays:
[1] = H+/Na+ transport assay of bead-derived peptides (one-point); assay type: biochemical; design: key: relative activity; mean of two control wells = 1.00; conditions: bead-derived peptide solution, EYPC/EYPG LUVs;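 also: relative to parent gramicidin A activity set to 1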
Outline: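 One-point screen: peptide + pyranine-loaded LUVs, 30 min RT with vortexing, 96-well. Read-out is fluorescence intensity scaled as 100 × (Ix – I0)/(Imax – I0). Imax from Triton X-100, I0 from untreated vesicles, and the mean of the two control wells is set to 1.00.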

[2] = system: P388 mouse leukemia cells; conditions: 92 h
Outline: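 First, library peptide stocks are diluted 250-fold in RPMI1640 with 10% heat-inactivated FBS. Next, they are mixed with P388 cells to give 1 × 10^4 cells/mL and incubated 92 h at 37 °C, 5% CO2. Finally, viability (%) is scored by WST-1 absorbance at 415 nm.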

[3] = system: Streptococcus pyogenes SSI-9; assay: Antibacterial activity assay of bead-derived peptides (three concentrations); assay type: cell-based; design: key: +++: inhibition by the 640-fold diluted peptide solution; ++: inhibition by the 160-fold diluted solution; +: inhibition by the 40-fold diluted solution; -: no inhibition; conditions: S. pyogenes, bead-derived peptide solution, three concentrations
Outline: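 Three stock dilutions per peptide (none, 4-fold, 16-fold in DMSO) are screened in 96-well format. The medium is blood-supplemented cation-adjusted MHB, inoculated with 2 × 10^5 CFU S. pyogenes SSI-9. Growth is read as cell precipitation at 18 h, 37 °C.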

| Compound | H+/Na+ transport activity normalized against the value of 1 (1.00) [1] | cell viability/% [2] | antibacterial activity [3] |
| --- | --- | --- | --- |
| CC(C)C[C@@H](NC(=O)[C@H](Cc1c[nH]c2ccccc12)NC(=O)[C@H](NC(=O)[C@@H](NC(=O)[C@H](NC(=O)[C@H](C)NC(=O)[C@H](NC(=O)[C@H](C)NC(=O)CNC(=O)[C@@H](NC=O)C(C)C)C(C)C)C(C)C)C(C)C)[C@H](C)O)C(=O)N[C@@H](Cc1c[nH]c2ccccc12)C(=O)N[C@@H](C(=O)N[C@@H](Cc1c[nH]c2ccccc12)C(=O)N[C@@H](C(=O)N[C@@H](Cc1c[nH]c2ccccc12)C(=O)NCCO)C(C)C)C(C)C [compound 8596] (For-VGA[dV]A[dV]V[dT]W[dL]W[dV]W[dV]W-NHCH2CH2OH) | 1.07 | 56.2% | - |
| CNC(=O)C[C@@H](NC(=O)[C@@H](NC(=O)[C@@H](CC(C)C)NC(=O)[C@H](C)NC(=O)[C@@H](CC(C)C)NC(=O)[C@H](C)NC(=O)CNC(=O)[C@@H](NC=O)C(C)C)C(C)C)C(=O)N[C@@H](Cc1c[nH]c2ccccc12)C(=O)N[C@H](CC(C)C)C(=O)N[C@@H](Cc1c[nH]c2ccccc12)C(=O)N[C@@H](C(=O)N[C@@H](Cc1c[nH]c2ccccc12)C(=O)N[C@H](CC(C)C)C(=O)N[C@@H](Cc1c[nH]c2ccccc12)C(=O)NCCO)C(C)C [compound 8600] (For-VGA[dL]A[dL]V[dD](NHMe)W[dL]W[dV]W[dL]W-NHCH2CH2OH) | 1.20 | 55.3% | - |
| CC(C)C[C@@H](NC(=O)[C@H](Cc1c[nH]c2ccccc12)NC(=O)[C@H](NC(=O)[C@H](Cc1c[nH]c2ccccc12)NC(=O)[C@H](NC(=O)[C@H](Cc1c[nH]c2ccccc12)NC(=O)[C@@H](CC(C)C)NC(=O)[C@@H](NC(=O)[C@H](NC(=O)[C@H](C)NC(=O)[C@H](NC(=O)[C@H](C)NC(=O)CNC(=O)[C@@H](NC=O)C(C)C)C(C)C)C(C)C)C(C)C)C(C)C)[C@H](C)O)C(=O)N[C@@H](Cc1c[nH]c2ccccc12)C(=O)NCCO [compound 8633] (For-VGA[dV]A[dV]V[dL]W[dV]W[dT]W[dL]W-NHCH2CH2OH) | 1.00 | 61.8% | - |
| CC(C)C[C@@H](NC(=O)[C@H](C)NC(=O)CNC(=O)[C@@H](NC=O)C(C)C)C(=O)N[C@@H](C)C(=O)N[C@H](CC(C)C)C(=O)N[C@H](C(=O)N[C@H](CC(C)C)C(=O)N[C@@H](Cc1c[nH]c2ccccc12)C(=O)N[C@H](CC(C)C)C(=O)N[C@@H](Cc1c[nH]c2ccccc12)C(=O)N[C@H](CC(C)C)C(=O)N[C@@H](Cc1c[nH]c2ccccc12)C(=O)N[C@@H](C(=O)N[C@@H](Cc1c[nH]c2ccccc12)C(=O)NCCO)C(C)C)C(C)C [compound 8635] (For-VGA[dL]A[dL]V[dL]W[dL]W[dL]W[dV]W-NHCH2CH2OH) | 1.05 | 6.4% | + |
| CNC(=O)C[C@@H](NC(=O)[C@@H](NC(=O)[C@@H](CC(C)C)NC(=O)[C@H](C)NC(=O)[C@H](NC(=O)[C@H](C)NC(=O)CNC(=O)[C@@H](NC=O)C(C)C)C(C)C)C(C)C)C(=O)N[C@@H](Cc1c[nH]c2ccccc12)C(=O)N[C@@H](C(=O)N[C@@H](Cc1c[nH]c2ccccc12)C(=O)N[C@@H](C(=O)N[C@@H](Cc1c[nH]c2ccccc12)C(=O)N[C@@H](C(=O)N[C@@H](Cc1c[nH]c2ccccc12)C(=O)NCCO)C(C)C)C(C)C)C(C)C [compound 8662] (For-VGA[dV]A[dL]V[dD](NHMe)W[dV]W[dV]W[dV]W-NHCH2CH2OH) | 1.08 | 61.0% | - |
| CC(C)C[C@@H](NC(=O)[C@H](C)NC(=O)[C@H](NC(=O)[C@H](C)NC(=O)CNC(=O)[C@@H](NC=O)C(C)C)[C@H](C)O)C(=O)N[C@H](C(=O)N[C@@H](C(=O)N[C@@H](Cc1c[nH]c2ccccc12)C(=O)N[C@@H](C(=O)N[C@@H](Cc1c[nH]c2ccccc12)C(=O)N[C@H](CC(C)C)C(=O)N[C@@H](Cc1c[nH]c2ccccc12)C(=O)N[C@@H](C(=O)N[C@@H](Cc1c[nH]c2ccccc12)C(=O)NCCO)C(C)C)C(C)C)C(C)C)C(C)C [compound 8687] (For-VGA[dT]A[dL]V[dV]W[dV]W[dL]W[dV]W-NHCH2CH2OH) | 1.15 | 66.9% | - |
| CC(C)C[C@@H](NC(=O)[C@H](C)NC(=O)[C@H](NC(=O)[C@H](C)NC(=O)CNC(=O)[C@@H](NC=O)C(C)C)C(C)C)C(=O)N[C@H](C(=O)N[C@@H](C(=O)N[C@@H](Cc1c[nH]c2ccccc12)C(=O)N[C@H](CC(C)C)C(=O)N[C@@H](Cc1c[nH]c2ccccc12)C(=O)N[C@@H](C(=O)N[C@@H](Cc1c[nH]c2ccccc12)C(=O)N[C@@H](C(=O)N[C@@H](Cc1c[nH]c2ccccc12)C(=O)NCCO)C(C)C)C(C)C)C(C)C)C(C)C [compound 8697] (For-VGA[dV]A[dL]V[dV]W[dL]W[dV]W[dV]W-NHCH2CH2OH) | 1.04 | 100.0% | + |
| CC(C)C[C@@H](NC(=O)[C@H](C)NC(=O)CNC(=O)[C@@H](NC=O)C(C)C)C(=O)N[C@@H](C)C(=O)N[C@H](CC(C)C)C(=O)N[C@H](C(=O)N[C@H](CC(C)C)C(=O)N[C@@H](Cc1c[nH]c2ccccc12)C(=O)N[C@@H](C(=O)N[C@@H](Cc1c[nH]c2ccccc12)C(=O)N[C@@H](C(=O)N[C@@H](Cc1c[nH]c2ccccc12)C(=O)N[C@@H](C(=O)N[C@@H](Cc1c[nH]c2ccccc12)C(=O)NCCO)C(C)C)[C@H](C)O)C(C)C)C(C)C [compound 8722] (For-VGA[dL]A[dL]V[dL]W[dV]W[dT]W[dV]W-NHCH2CH2OH) | 1.09 | 70.8% | - |
| CC(C)C[C@@H](NC(=O)[C@H](C)NC(=O)[C@H](NC(=O)[C@H](C)NC(=O)CNC(=O)[C@@H](NC=O)C(C)C)C(C)C)C(=O)N[C@H](C(=O)N[C@@H](C(=O)N[C@@H](Cc1c[nH]c2ccccc12)C(=O)N[C@@H](C(=O)N[C@@H](Cc1c[nH]c2ccccc12)C(=O)N[C@H](CC(C)C)C(=O)N[C@@H](Cc1c[nH]c2ccccc12)C(=O)N[C@@H](C(=O)N[C@@H](Cc1c[nH]c2ccccc12)C(=O)NCCO)[C@H](C)O)C(C)C)C(C)C)C(C)C [compound 8731] (For-VGA[dV]A[dL]V[dV]W[dV]W[dL]W[dT]W-NHCH2CH2OH) | 1.05 | 71.2% | - |
| CNC(=O)C[C@@H](NC(=O)[C@@H](NC(=O)[C@H](NC(=O)[C@H](C)NC(=O)[C@@H](CC(C)C)NC(=O)[C@H](C)NC(=O)CNC(=O)[C@@H](NC=O)C(C)C)C(C)C)C(C)C)C(=O)N[C@@H](Cc1c[nH]c2ccccc12)C(=O)N[C@@H](C(=O)N[C@@H](Cc1c[nH]c2ccccc12)C(=O)N[C@H](CC(C)C)C(=O)N[C@@H](Cc1c[nH]c2ccccc12)C(=O)N[C@@H](C(=O)N[C@@H](Cc1c[nH]c2ccccc12)C(=O)NCCO)C(C)C)C(C)C [compound 8732] (For-VGA[dL]A[dV]V[dD](NHMe)W[dV]W[dL]W[dV]W-NHCH2CH2OH) | 1.11 | 72.4% | - |
| CC(C)C[C@@H](NC(=O)[C@H](C)NC(=O)CNC(=O)[C@@H](NC=O)C(C)C)C(=O)N[C@@H](C)C(=O)N[C@H](CC(C)C)C(=O)N[C@H](C(=O)N[C@@H](C(=O)N[C@@H](Cc1c[nH]c2ccccc12)C(=O)N[C@@H](C(=O)N[C@@H](Cc1c[nH]c2ccccc12)C(=O)N[C@@H](C(=O)N[C@@H](Cc1c[nH]c2ccccc12)C(=O)N[C@@H](C(=O)N[C@@H](Cc1c[nH]c2ccccc12)C(=O)NCCO)C(C)C)[C@H](C)O)C(C)C)C(C)C)C(C)C [compound 8749] (For-VGA[dL]A[dL]V[dV]W[dV]W[dT]W[dV]W-NHCH2CH2OH) | 1.05 | 62.2% | - |
| CC(C)C[C@@H](NC(=O)[C@H](C)NC(=O)[C@H](NC(=O)[C@H](C)NC(=O)CNC(=O)[C@@H](NC=O)C(C)C)C(C)C)C(=O)N[C@H](C(=O)N[C@@H](C(=O)N[C@@H](Cc1c[nH]c2ccccc12)C(=O)N[C@H](CC(C)C)C(=O)N[C@@H](Cc1c[nH]c2ccccc12)C(=O)N[C@@H](C(=O)N[C@@H](Cc1c[nH]c2ccccc12)C(=O)N[C@@H](C(=O)N[C@@H](Cc1c[nH]c2ccccc12)C(=O)NCCO)C(C)C)C(C)C)[C@H](C)O)C(C)C [compound 8779] (For-VGA[dV]A[dL]V[dT]W[dL]W[dV]W[dV]W-NHCH2CH2OH) | 1.07 | 40.6% | - |
| CC(C)C[C@@H](NC(=O)[C@H](C)NC(=O)CNC(=O)[C@@H](NC=O)C(C)C)C(=O)N[C@@H](C)C(=O)N[C@@H](C(=O)N[C@H](C(=O)N[C@H](CC(C)C)C(=O)N[C@@H](Cc1c[nH]c2ccccc12)C(=O)N[C@@H](C(=O)N[C@@H](Cc1c[nH]c2ccccc12)C(=O)N[C@@H](C(=O)N[C@@H](Cc1c[nH]c2ccccc12)C(=O)N[C@@H](C(=O)N[C@@H](Cc1c[nH]c2ccccc12)C(=O)NCCO)C(C)C)C(C)C)C(C)C)C(C)C)C(C)C [compound 8796] (For-VGA[dL]A[dV]V[dL]W[dV]W[dV]W[dV]W-NHCH2CH2OH) | 1.15 | 74.1% | + |
